Laboratory results published in PubChem BioAssay (NCI).
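Results reflect a 48-hour exposure of cells in 96-well plates to compound at five concentrations. GI50 marks 50% less growth. At the TGI there is no net growth.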

How the values were obtained:
Assay in all cases: growth of human tumour cells (NCI), 48 h
[1] = system: MOLT-4 leukemia
[2] = system: HS 578T breast
[3] = system: NCI-H460 lung
[4] = system: SK-MEL-28 melanoma
[5] = system: EKVX NSCLC
[6] = system: TK-10 renal
[7] = system: A498 renal
[8] = system: HCT-15 colon
[9] = system: UACC-62 melanoma
[10] = system: OVCAR-3 ovarian

Compound	GI50 [1] [µM]	TGI [1] [µM]	GI50 [2] [µM]	TGI [2] [µM]	GI50 [3] [µM]	TGI [3] [µM]	GI50 [4] [µM]	TGI [4] [µM]	GI50 [5] [µM]	TGI [5] [µM]	GI50 [6] [µM]	TGI [6] [µM]	GI50 [7] [µM]	TGI [7] [µM]	GI50 [8] [µM]	TGI [8] [µM]	GI50 [9] [µM]	TGI [9] [µM]	GI50 [10] [µM]	TGI [10] [µM]
NC1=Nc2cc(OCCCN3Cc4ccccc4C3)c(OCC3CC3)cc2C12CCCC2	2.17	6.22	2.83	17.7	2.02	4.67	1.84	3.46	3.18	11.8	2.31	8.16	4.48	18.1	2.1	6.51	1.9	3.87	2.69	8.68
N#C/C(=C\c1ccc(Br)cc1)n1nnc2ccccc21	1.48	11.4	2.63	14	1.68	3.82	0.94	3.54	1.41	7.48	2.69	6.8	1.71	4.37	0.273	3.03	0.358	1.59	0.244	0.604
NC1CCC(N[C@@H]2C[C@H]2c2ccccc2)CC1 (stereo not given in full)	60	> 100	> 100	> 100	> 100	> 100	> 100	> 100	> 100	> 100	> 100	> 100	21.4	> 100	74.4	> 100	33.6	> 100	> 100	> 100
Fc1ccc2[nH]cc(SSc3c[nH]c4ccc(F)cc34)c2c1	2.71	33.4	4.22	31.1	4.44	19.9	5.71	20.3	3.03	15.7	10.1	24.6	3.61	14.4	2.1	22	2.83	13.8	4.52	18.3
COc1cc(/C=C2\C(=O)Nc3cccc(Cl)c32)cc(OC)c1OC	0.142	1.34	> 100	> 100	> 100	> 100	> 100	> 100	> 100	> 100	> 100	> 100	> 100	> 100	> 100	> 100	> 100	> 100	> 100	> 100
